Values of other authors, collected in patent US9572894B2, “Biodegradable particulate formulations” (The University of Iowa Research Foundation, priority 2010, dated 2017).

Test system: gliomas
Conditions: ten daily i.t. injections

COc1cccc2c1C(=O)c1c(O)c3c(c(O)c1C2=O)C[C@@](O)(C(=O)CO)C[C@@H]3O[C@H]1C[C@H](N)[C@H](O)[C@H](C)O1 [doxorubicin]
reported toxicity: limited to headache | subjects with local regression: six of the ten
